One molecule from patent publication US20230159931A1, “TARGETING THE PALMOTYLATION/DEPALMOTYLATION CYCLE TO TREAT INFLAMMATORY DISEASES” (CORNELL UNIVERSITY, priority 2020, published 2023) can be followed below.

In one assay the test system is SMAD2 S-palmitoylation. Nature of the assay: SMAD2 S-palmitoylation in HEK293T cells treated with APT inhibitors (Alk14, in-gel fluorescence). Format: cell-based, human. The conditions noted are these: 10 μM APT inhibitors for 24 hours; HEK293T cells with HA-DHHC7 and Flag-SMAD2. An excerpt: FIGS. 7A-7G. APT2 is the depalmitylase of SMAD2 and C-terminal phosphorylation of SMAD2 is S-palmitoylation independent. (A) C-terminal phosphorylation (Ser465/Ser467) levels of Flag-SMAD2 (p-SMAD2(C2)) in HEK293T cells expressing HA-tagged mouse DHHC1-23. SMAD2 was pulled down with Flag beads and subjected to western blot analyses. (B) HEK293T cells were transfected with HA-tagged DHHC7 and Flag-SMAD2 WT and C41/81S mutant plasmid and treated with Alk14. The S-palmitoylation level of immunoprecipitated SMAD2 was visualized by in-gel fluorescence and the p-SMAD2(C2) level was detected by western blot analyses. […] The S-palmitoylation level of immunoprecipitated SMAD2 was visualized by in-gel fluorescence. […] The cells were labeled with Alk14 and the S-palmitoylation of SMAD2 was determined by in-gel fluorescence. […] The cells were labeled with Alk14 and the S-palmitoylation of SMAD2 was determined by in-gel fluorescence and the p-SMAD2(C2) level was detected by western blot analyses. […]
Cells were treated with 50 μM palmitic acid analogue Alkyne 14 (Alk14) for 5 h and the collected and lysed in 1% NP-40 lysis buffer (25 mM Tris-HCl pH 8.0, 150 mM NaCl, 10% glycerol, 1% Nonidet P-40) with protease inhibitor cocktail. […] The protein concentration was determined by Bradford assay (23200, Thermo Fisher). […]

The target of the next assay is T1, APT2 (Homo sapiens, UniProt O95372).
T1 construct: treated with LYPLA2 siRNA or 20 μM of ML349 for 36 h before Alk14 labelling; endogenous in cells; host or cells: DHHC7-knockout HEK293T cells re-expressing HA-DHHC7 and Flag-STAT3
Nature of the assay: STAT3 palmitoylation by Alk14 labelling and in-gel fluorescence after APT2 inhibition or knockdown. Type of assay: cell-based. Conditions: DHHC7-knockout HEK293T cells reintroduced with HA-DHHC7 and Flag-STAT3; LYPLA2 siRNA or 20 μM of ML349 for 36 h. An excerpt:
FIGS. 2A-2H. APT2 is a depalmitoylase of STAT3 and palmitoylation/depalmitoylation promotes p-STAT3 nuclear localization. (A) C108 is the major palmitoylation site of STAT3. HEK293T cells were transfected with HA-DHHC7 and Flag-STAT3 (wild-type or mutants) and labelled with Alk14. STAT3 was pulled down and subjected to Alk14 labelling and western blot analyses. (B) Left, distribution of wild-type or C108S mutants of STAT3 and p-STAT3 in the subcellular fractions of DHHC7-knockout HEK293T cells into which DHHC7 or DHHS7 were reintroduced. Right, quantification of the relative p-STAT3 levels. (C) The subcellular localization of STAT3 and p-STAT3 was analysed using confocal imaging after different EGFP-STAT3 constructs and HA-tagged DHHC7 were transfected into DHHC7-knockout HEK293T cells. […] (D) In HEK293T cells, overexpression of wild-type APT2—but not the C2S or S122A mutants—decreased the palmitoylation level of Flag-STAT3 as determined by Alk14 labelling. […] The palmitoylation of STAT3 was determined by in-gel fluorescence (left) and quantified (right). […] DHHC7-knockout HEK293T cells were reintroduced with HA-DHHC7 and Flag-STAT3, and treated with LYPLA2 siRNA or 20 μM of ML349 for 36 h before Alk14 labelling and in-gel fluorescence detection. […] Right, quantification of the relative STAT3 and p-STAT3 levels in these fractions. […] Right, quantification of the relative STAT3 levels in these fractions. […]

T1 sequence (O95372 whole entry): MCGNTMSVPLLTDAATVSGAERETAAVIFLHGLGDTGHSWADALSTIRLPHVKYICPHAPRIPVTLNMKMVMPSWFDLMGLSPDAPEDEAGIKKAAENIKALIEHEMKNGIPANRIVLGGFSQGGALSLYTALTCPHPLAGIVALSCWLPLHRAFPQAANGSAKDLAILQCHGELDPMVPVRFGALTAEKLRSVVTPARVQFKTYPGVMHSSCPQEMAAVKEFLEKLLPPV

In the case of `COc1ccc(N2CCN(C(=O)c3cc4c(s3)-c3ccccc3S(=O)(=O)C4)CC2)cc1` [ML349], in the assay on SMAD2 S-palmitoylation, the “SMAD2 S-palmitoylation signal” value is recorded as “significantly enhanced”. Besides, the STAT3 palmitoylation entry on APT2 was “increased STAT3 palmitoylation”.
